Test results as given in US12467038B2, “Methods of culturing human pluripotent cells” (Hadasit Medical Research Services and Development Ltd., priority 2019, dated 2025).

What was measured:
[1] = tested on: hPSCs; assay: Extended propagation and karyotype analysis; type: cell-based, human
Protocol: (§1) hPSC culture—hPSC culture—hPSC lines HES-1, HES-2 (10), HADC100, HADC102 (36) and H7 (9) were cultured on human foreskin feeders in serum free medium as described (30, 87). hPSC culturing in suspension was performed as reported (31) with minor modifications of the culture medium that was composed of Neurobasal medium, 14% KO-SR, L-glutamine 2 mM, 50 units/ml penicillin, 50 μg/ml streptomycin, 1% nonessential amino acids (all from Invitrogen, Carlsbad, Calif., USA). The medium was supplemented with FGF2 20 ng/ml, and activin A 25 ng/ml (both from Peprotech, Rocky Hill, N.J., USA), and laminin 0.5 μg/ml (Sigma-Aldrich, St. Louis, Mo., USA). For hPSC culturing on mouse LN111, 3-D Culture Matrix Laminin I (CULTREX, TREVIGEN, #3446-005-01, Gaithersburg, Md., USA) was diluted to a concentration of 1 mg/ml. Tissue culture dishes were coated with LN111, incubated overnight at 37° C. to promote matrix gelling, and washed with PBS. hPSCs were cultured on LN111 in a chemically defined medium composed of DMEM/F12, B27 supplement (1:50), N2 supplement (1:100) 2 mM L-glutamine, 50 units/ml penicillin, 50 μg/ml streptomycin (all from Invitrogen), and supplemented with 20 ng/ml bFGF (Peprotech). The cells were cultured in 5% CO2, 5% O2 incubator They were passaged every 7 days as small clusters by treatment with 1 mg/ml collagenase type IV (Invitrogen), and plated in a medium containing 5 μM ROCK inhibitor. hPSC culture under naïve conditions was performed using the 5iLFA protocol (20).
Alkaline phosphatase activity detection and karyotyping—Detection of alkaline phosphatase activity was performed on hPSC colonies using the Alkaline Phosphatase Staining Kit II (Stemgent, Cambridge, Mass., USA) according to the manufacturer's instructions. Karyotype analysis, was performed on 3-4 day hPSC colonies.

[2] = tested on: FGF5-GFP hPSC reporter clones (HES-1); assay: FACS analysis of FGF5-GFP expression in hPS-FGF5 reporter clones; type: cell-based, human
Protocol: as §1
Generation of FGF5 reporter cell lines—a 3 kb fragment of human FGF5 promoter (GeneBank accession number NT_016354) was amplified from HES-1 genomic DNA using Expand High Fidelity PCR System (Roche Applied Science, Penzberg, Germany) with primers CG ? TTGCTTTCCTGGCTGGGAG (SEQ ID NO: 1) (EcoRI) and CA ? AGCCTCGGGGAAGAGAAGG (SEQ ID NO: 2) (ApaI). […] Single colonies were picked, replated, and analyzed for the integrity of the integrated reporter vector. […]

Substance: LN111: mouse LN111, 3-D Culture Matrix Laminin I (CULTREX, TREVIGEN), coating of culture dishes
- extended undifferentiated propagation ([1]; HADC100): 6 passages
- extended undifferentiated propagation ([1]; HADC102): 8 passages
- passages propagated while maintaining a normal karyotype ([1]; HES-1 cells): at least 10 passages
- percentage of FGF5-GFP expressing cells ([2]; reporter clone #1 cultured on LN111): 86%±2
- percentage of FGF5-GFP expressing cells ([2]; reporter clone #2 cultured on LN111): 90%±1
- percentage of FGF5-GFP expressing cells ([2]; reporter clone #3 cultured on LN111): 79%±3
